This is an account of results in US20190064146A1, “IMMUNE CELLS HAVING INCREASED IMMUNITY OR RESISTANCE TO AN IMMUNOSUPPRESSIVE CYTOKINE AND USE OF THE SAME” (Innate Tumor Immunity, INC., priority 2015, published 2019).

For the test, the system named is EG.7 tumor cells. The test is described as follows: Adoptive transfer of in vitro activated OT-1 CD8+ T cells into mice with established EG.7 flank tumors. The format is in vivo. Particulars: OT-1 splenocytes activated with OVA antigen 1 μg/mL plus TGF-β 10 ng/mL and IL-1β 10 ng/mL for 5 days; 5×10^6 CD8+ cells intraperitoneally into C57BL/6J mice with 7-day EG.7 tumors. On the procedure:
To induce tumor, 1×10^6 EG.7 tumor cells, which expressed the OVA antigen, were injected subcutaneously on the flank of Black/6 mice. In this condition, after 7 days EG.7 cells from palpable tumors. To generate anti-tumor T cells, splenocytes from OT-1 mice, which have a transgenic TCR that recognize OVA antigen, were activated with OVA antigen (1 μg/mL) in the presence of TGF-β, or the presence of TGF-β and IL-1β. After 5 days CD8^+ cells were purified. […] Tumor volume was recorded 3 times a week until the end of the study. […]
OT-1 mice were anesthetized and spleens were harvested and strained through a 70-um filter with PBS with 10% FBS. […] After washing, cells were counted and placed in tissue culture at a final concentration of 1×10^6 cells/mL. […]
Tumors were established with subcutaneous flank injections of 1×10^6 cells suspended in 100 μL PBS. Tumors were measured three times a week and volumes were estimated using the formula 3.14×[largest diameter×(perpendicular diameter)^2]/6. […]
The average tumor volumes of the combination treatment group over time was plotted and compared to control treated with vehicle. […] For statistical comparisons, Two-Way Anova with Bonferroni correction was calculated with GaphPrism software.

Take “IL-1β: exemplary NLRP3 activator; cytokine interleukin-1β added to T cell culture”: the “CD8+ antitumor activity against established cancer (tumor volume)” value is recorded as “promotes CD8^+ antitumor activity against established cancer”.
